Key:
[1] = system: 8-oxo-dG levels in DNA of HeLa cells; assay: 8-oxo-dG immunofluorescence; assay type: cell-based, human; conditions: 20 h, NPD compounds 100 μM, TH287 3 and 10 μM
Protocol: Human cancer cell lines HeLa (cervical cancer), MIA PaCa-2 (pancreatic cancer), A431 (epidermoid carcinoma), and human embryonic kidney derived cell line HEK293T were cultured in Dulbecco’s Modified Eagle’s Medium (DMEM; Invitrogen) containing 10% fetal bovine serum (FBS), penicillin G (50 units/mL) and streptomycin (50 µg/mL). Human cancer cell lines Panc-1 (pancreatic cancer) and Jurkat (T cell lymphoma) were cultured in RPMI (Gibco) containing 10% FBS, penicillin G (50 units/mL) and streptomycin (50 µg/mL). Human osteosarcoma cell line MG-63, mouse embryonic fibroblast NIH3T3 cells and its transformant NIH3T3/KRAS cells1 were cultured in DMEM (Sigma-Aldrich) containing 10% calf serum, glutamine (0.3 g/L), penicillin G (50 units/mL), and streptomycin (50 µg/mL). All cell lines were incubated at 37 °C in a humidified atmosphere containing 5% CO2. […]
The HeLa cells were seeded on glass coverslips in 12-well plates, cultured overnight, and treated with test compounds for the indicated time. For 8-oxo-dG, cells were fixed sequentially in 3.7% formalin for 10 min and methanol at -20 °C for 10 min, and then permeabilized in 0.5% Triton X-100 in PBS at room temperature for 5 min. After blocking with 0.5% BSA in PBS at room temperature for 30 min, cells were incubated sequentially with a primary antibody against 8-oxo-dG (5 µg/mL, MOG-020; Japan Institute for the Control of Aging) and with Alexa Fluor 488-conjugated secondary antibody (1:400, Life Technologies) under the same conditions. After a quick rinse in PBS, DNA was counterstained with 0.1 µg/mL 4′,6-diamidino-2-phenylindole (DAPI) in PBS at room temperature for 10 min. Images were analyzed with a fluorescence microscope (BX60, Olympus).

[2] = biological target: T1, MTH1 in intact HeLa cells (Homo sapiens, UniProt P36639); assay: Target engagement assay (CETSA); assay type: cell-based; conditions: 300 μM, 1 h
T1 construct: endogenous in cells; host or cells: HeLa
Protocol: To analyze the interaction between small-molecule ligands and their target proteins in intact cells, a cellular thermal shift assay (CETSA) was performed as described previously with minor modifications. […] After treatment, cells were collected with trypsin and resuspended in Tris-buffered saline (TBS). The cell suspension was aliquoted into four polymerase chain reaction (PCR) tubes and heated at 45, 50, 55, or 60 °C for 5 min. Subsequently, cells were lysed by three repeated freeze-thaw cycles using liquid nitrogen. Precipitated proteins were separated from the soluble fraction by centrifugation at 17,000 × g for 20 min. Soluble proteins collected in the supernatant were subjected to sodium dodecyl sulfate polyacrylamide gel electrophoresis (SDS-PAGE) and transferred to a polyvinylidene difluoride (PVDF) membrane (Millipore) for western blot analysis. […] Santa Cruz Biotechnology) and a horseradish peroxidase–labeled secondary antibody (Vector Laboratories) in sequence. They were then visualized with Fusion Solo S (Vilber Lourmat) using a Super Signal West Pico Chemiluminescence Substrate (Pierce). After detection of MTH1 by western blot, proteins on the membrane were visualized by staining with Coomassie brilliant blue (CBB).

| Structure (SMILES) | accumulation of 8-oxo-dG [1] | thermal stabilization of cellular MTH1 [2] |
| --- | --- | --- |
| Nc1nc(NCCc2ccccc2)c2nc[nH]c2n1 [NPD9948] | did not induce the significant accumulation | considerably stabilized |
| CC1(C)CC2CC(C)(CN2c2ncnc3[nH]cnc23)C1 (stereo not shown) [NPD7155] | did not induce the significant accumulation | considerably stabilized |
